{"source": "patent US5536645A", "about": "“Nutritive medium for the culture of microorganism” (priority 1993, dated 1996)", "assay_type_in_all_cases": "cell-based", "key": {"[1]": {"tested_on": "E. faecalis", "experiment": "Equivalent MIC of antibiotics in VITEK cards, gram-positive bacteria (Table 4)", "conditions": "for MIC: Enterococcus faecalis, 12 h", "protocol": "(§1) With the determination of the sensitivity to antibiotics in mind, a suspension of 0.5 MF (Mac Farland) in physiological water was prepared from bacterial colonies selected in Petri dishes, reading being carried out on an ATB 1550 densitometer marketed by BIOMERIEUX (ATB trade mark). The suspension obtained was respectively diluted to 1/100th in the medium of the invention and Mueller-Hinton medium. VITEK cards (VITEK trade mark) containing different antibiotics at 10 concentrations were filled in vacuo into a VITEK apparatus marketed by BIOMERIEUX-VITEK. The cards were incubated for 12 hours in a VITEK incubator/reader marketed by BIOMERIEUX-VITEK. The growth kinetics were visualized and interpreted and an equivalent MIC was determined (equivalent MIC: equivalent minimum inhibitory concentration, that is to say the smallest concentration for which no bacterial growth is detected by the apparatus).\n(§2) IST refers to the medium of the invention and MH signifies Mueller-Hinton medium.\n(§3) *A range of concentration, of ratio 2, was tested for each antibiotic in\n(§4) each of the abovementioned concentration margins.\n(§5) S, I and R respectively signify \"sensitive\", \"intermediate\" and \"resistant\" with reference to the critical concentrations defined by the NCCLS (National Committee for Clinical Laboratory Standards)."}, "[2]": {"tested_on": "S. aureus", "experiment": "microbe, parasite or virus in culture", "conditions": "for MIC: Staphylococcus aureus, read-out: Equivalent MIC", "protocol": "as §1, §2, §3, §4, §5"}, "[3]": {"tested_on": "S. epidermidis", "experiment": "microbe, parasite or virus in culture", "conditions": "for MIC: Staphylococcus epidermidis, 12 h, read-out: Equivalent MIC", "protocol": "as §1, §2, §3, §4, §5"}, "[4]": {"tested_on": "K. pneumoniae", "experiment": "Equivalent MIC of antibiotics in VITEK cards, gram-negative bacteria (Table 3)", "conditions": "for MIC: Klebsiella pneumoniae, 12 h", "protocol": "as §1, §2, §5"}, "[5]": {"tested_on": "S. marcescens", "experiment": "Equivalent MIC of antibiotics in VITEK cards, gram-negative bacteria (Table 3)", "conditions": "for MIC: Serratia marcescens, 12 h, read-out: Equivalent MIC", "protocol": "as §1, §2, §5"}, "[6]": {"conditions": "ATCC29213, 12 h, ATCC 29213, IST medium"}, "[7]": {"conditions": "ATCC29213, 12 h, ATCC 29213, MH medium"}}, "note": "Like-named read-outs stand apart in the source and are kept apart here.", "data": [{"smiles": "CC[C@H]1OC(=O)[C@H](C)[C@@H](O[C@H]2C[C@@](C)(OC)[C@@H](O)[C@H](C)O2)[C@H](C)[C@@H](O[C@@H]2O[C@H](C)C[C@H](N(C)C)[C@H]2O)[C@](C)(O)C[C@@H](C)C(=O)[C@H](C)[C@@H](O)[C@]1(C)O", "note": "[erythromicin]", "values": [{"measurement": "NCCLS Category", "setting": "[1]; CDC 2073, IST medium", "value": "R"}, {"measurement": "NCCLS Category", "setting": "[1]; CDC 2073, MH medium", "value": "R"}, {"measurement": "NCCLS Category", "setting": "[1]; CDC 2230, IST medium", "value": "I"}, {"measurement": "NCCLS Category", "setting": "[1]; CDC 2230, MH medium", "value": "I"}, {"measurement": "MIC", "setting": "[1]; CDC 2073, IST medium", "value": 16, "unit": "µg/mL"}, {"measurement": "MIC", "setting": "[1]; CDC 2073, MH medium", "value": 16, "unit": "µg/mL"}, {"measurement": "MIC", "setting": "[1]; CDC 2230, IST medium", "value": 4, "unit": "µg/mL"}, {"measurement": "MIC", "setting": "[1]; CDC 2230, MH medium", "value": 4, "unit": "µg/mL"}, {"measurement": "NCCLS Category", "setting": "[2]; ATCC 29213, IST medium", "value": "S"}, {"measurement": "NCCLS Category", "setting": "[2]; ATCC 29213, MH medium", "value": "S"}, {"measurement": "NCCLS Category", "setting": "[2]; CDC 2194, IST medium", "value": "R"}, {"measurement": "NCCLS Category", "setting": "[2]; CDC 2194, MH medium", "value": "R"}, {"measurement": "NCCLS Category", "setting": "[2]; CDC 2215, IST medium", "value": "S"}, {"measurement": "NCCLS Category", "setting": "[2]; CDC 2215, MH medium", "value": "S"}, {"measurement": "MIC", "setting": "[2]; 12 h, CDC 2194, IST medium", "value": "> 32", "unit": "µg/mL"}, {"measurement": "MIC", "setting": "[2]; 12 h, CDC 2194, MH medium", "value": "> 32", "unit": "µg/mL"}, {"measurement": "MIC", "setting": "[2]; 12 h, CDC 2215, IST medium", "value": 0.5, "unit": "µg/mL"}, {"measurement": "MIC", "setting": "[2]; 12 h, CDC 2215, MH medium", "value": 0.5, "unit": "µg/mL"}, {"measurement": "MIC", "setting": "[2]; [6]", "value": 0.5, "unit": "µg/mL"}, {"measurement": "MIC", "setting": "[2]; [7]", "value": 0.25, "unit": "µg/mL"}, {"measurement": "NCCLS Category", "setting": "[3]; CDC 2024, IST medium", "value": "S"}, {"measurement": "NCCLS Category", "setting": "[3]; CDC 2024, MH medium", "value": "S"}, {"measurement": "NCCLS Category", "setting": "[3]; CDC 2105, IST medium", "value": "S"}, {"measurement": "NCCLS Category", "setting": "[3]; CDC 2105, MH medium", "value": "S"}, {"measurement": "NCCLS Category", "setting": "[3]; CDC 2234, IST medium", "value": "R"}, {"measurement": "NCCLS Category", "setting": "[3]; CDC 2234, MH medium", "value": "R"}, {"measurement": "MIC", "setting": "[3]; CDC 2024, IST medium", "value": 0.5, "unit": "µg/mL"}, {"measurement": "MIC", "setting": "[3]; CDC 2024, MH medium", "value": 0.25, "unit": "µg/mL"}, {"measurement": "MIC", "setting": "[3]; CDC 2105, IST medium", "value": 0.25, "unit": "µg/mL"}, {"measurement": "MIC", "setting": "[3]; CDC 2105, MH medium", "value": 0.25, "unit": "µg/mL"}, {"measurement": "MIC", "setting": "[3]; CDC 2234, IST medium", "value": "> 32", "unit": "µg/mL"}, {"measurement": "MIC", "setting": "[3]; CDC 2234, MH medium", "value": "> 32", "unit": "µg/mL"}]}, {"smiles": "CC1COc2c(N3CCN(C)CC3)c(F)cc3c(=O)c(C(=O)O)cn1c23", "note": "(centres unmarked) [ofloxacin]", "values": [{"measurement": "NCCLS Category", "setting": "[4]; API 88.03.111, IST medium", "value": "S"}, {"measurement": "NCCLS Category", "setting": "[4]; API 88.03.111, MH medium", "value": "S"}, {"measurement": "NCCLS Category", "setting": "[4]; API 88.08.056, IST medium", "value": "I"}, {"measurement": "NCCLS Category", "setting": "[4]; API 88.08.056, MH medium", "value": "I"}, {"measurement": "NCCLS Category", "setting": "[4]; CDC 2279, IST medium", "value": "S"}, {"measurement": "NCCLS Category", "setting": "[4]; CDC 2279, MH medium", "value": "S"}, {"measurement": "MIC", "setting": "[4]; API 88.03.111, IST medium", "value": 1, "unit": "µg/mL"}, {"measurement": "MIC", "setting": "[4]; API 88.03.111, MH medium", "value": 1, "unit": "µg/mL"}, {"measurement": "MIC", "setting": "[4]; API 88.08.056, IST medium", "value": 4, "unit": "µg/mL"}, {"measurement": "MIC", "setting": "[4]; API 88.08.056, MH medium", "value": 4, "unit": "µg/mL"}, {"measurement": "MIC", "setting": "[4]; CDC 2279, IST medium", "value": 0.25, "unit": "µg/mL"}, {"measurement": "MIC", "setting": "[4]; CDC 2279, MH medium", "value": 0.25, "unit": "µg/mL"}, {"measurement": "NCCLS Category", "setting": "[5]; API 81.45.111, IST medium", "value": "I"}, {"measurement": "NCCLS Category", "setting": "[5]; API 81.45.111, MH medium", "value": "S"}, {"measurement": "NCCLS Category", "setting": "[5]; API 81.47.110, IST medium", "value": "R"}, {"measurement": "NCCLS Category", "setting": "[5]; API 81.47.110, MH medium", "value": "R"}, {"measurement": "MIC", "setting": "[5]; API 81.45.111, IST medium", "value": 4, "unit": "µg/mL"}, {"measurement": "MIC", "setting": "[5]; API 81.45.111, MH medium", "value": 2, "unit": "µg/mL"}, {"measurement": "MIC", "setting": "[5]; API 81.47.110, IST medium", "value": 16, "unit": "µg/mL"}, {"measurement": "MIC", "setting": "[5]; API 81.47.110, MH medium", "value": 8, "unit": "µg/mL"}]}, {"smiles": "Cc1onc(-c2ccccc2)c1C(=O)N[C@@H]1C(=O)N2[C@@H]1SC(C)(C)[C@@H]2C(=O)O", "note": "[oxacillin]", "values": [{"measurement": "NCCLS Category", "setting": "[2]; ATCC 29213, IST medium", "value": "S"}, {"measurement": "NCCLS Category", "setting": "[2]; ATCC 29213, MH medium", "value": "S"}, {"measurement": "NCCLS Category", "setting": "[2]; CDC 2194, IST medium", "value": "S"}, {"measurement": "NCCLS Category", "setting": "[2]; CDC 2194, MH medium", "value": "S"}, {"measurement": "NCCLS Category", "setting": "[2]; CDC 2215, IST medium", "value": "S"}, {"measurement": "NCCLS Category", "setting": "[2]; CDC 2215, MH medium", "value": "S"}, {"measurement": "MIC", "setting": "[2]; 12 h, CDC 2194, IST medium", "value": 1, "unit": "µg/mL"}, {"measurement": "MIC", "setting": "[2]; 12 h, CDC 2194, MH medium", "value": "< 0.5", "unit": "µg/mL"}, {"measurement": "MIC", "setting": "[2]; 12 h, CDC 2215, IST medium", "value": 1, "unit": "µg/mL"}, {"measurement": "MIC", "setting": "[2]; 12 h, CDC 2215, MH medium", "value": "< 0.5", "unit": "µg/mL"}, {"measurement": "MIC", "setting": "[2]; [6]", "value": "< 0.25", "unit": "µg/mL"}, {"measurement": "MIC", "setting": "[2]; [7]", "value": "< 0.25", "unit": "µg/mL"}, {"measurement": "NCCLS Category", "setting": "[3]; CDC 2234, IST medium", "value": "S"}, {"measurement": "NCCLS Category", "setting": "[3]; CDC 2234, MH medium", "value": "R"}, {"measurement": "MIC", "setting": "[3]; CDC 2234, IST medium", "value": 2, "unit": "µg/mL"}, {"measurement": "MIC", "setting": "[3]; CDC 2234, MH medium", "value": 4, "unit": "µg/mL"}]}]}
